The target of series [1] is Ba/F3 EGFR Del19/T790M/C797S cells (Homo sapiens, UniProt P00533, T790M/C797S, cells depend on it, form not given). Nature of the series: Cell proliferation inhibition (Cell Titer-Glo), Ba/F3 EGFR Del19/T790M/C797S. The class given is cell-based, mouse. Particulars: 72 hours, CellTiter-Glo, read-out: Ba/F3 EGFR Del19_T790M_C797S IC50. The text has this:
(§1) Experimental objective: The objective of this test example is to test the inhibitory activity of compounds on the proliferation of different EGFR C797S drug-resistant mutant cell lines Ba/F3 EGFR Del19/T790M/C797S, Ba/F3 EGFR L858R/T790M/C797S, and Ba/F3 EGFR Del19/C797S.
(§2) • Ba/F3 EGFR Del19/T790M/C797S cells were purchased from KYinno Biotechnology Co., Ltd.; • Ba/F3 EGFR Del19/C797S cells were purchased from CoBioer Biosciences Co., Ltd.; • Ba/F3 EGFR L858R/T790M/C797S cells were purchased from CoBioer Biosciences Co., Ltd.; • Cell Titer-Glo was purchased from Promega, with a catalog number of G7573; • RPMI 1640 was purchased from Gibco, with a catalog number of 22400089; • FBS was purchased from Gibco, with a catalog number of 10091148; • cell culture plates were purchased from Corning, with a catalog number of 3610.
(§3) The inhibitory activity of the compound on the proliferation of different EGFR C797S drug-resistant mutant cell lines was detected using the Cell Titer-Glo method. The different cell lines were cultured in RPMI 1640 complete culture medium containing 10% FBS under conditions of 37° C. and 5% CO2, the cells were collected by centrifugation when growing to a certain density, and adjusted to appropriate cell density after counting, the cells were spread on a white 96-well plate at 90 μL/well, and cultured in a 37° C., 5% CO2 incubator overnight, prepared compound solutions of different concentrations were added at 10 μL/well, corresponding solvent controls were set, and all wells were cultured in a 37° C., 5% CO2 incubator for 72 hours, 50 μL of CellTiter-Glo solution was added to each well, shook and mixed evenly, and incubated in the dark for 10 minutes, and a BioTek Synergy H1 microplate reader was used for reading.
(§4) The luminescence signal value was used to calculate the inhibition rate. Graphpad Prism software was used to fit the concentration and inhibition rate to a nonlinear regression curve, so as to obtain the IC50 value, as shown in the Table below for details.

Series [2] addresses Ba/F3 EGFR L858R/T790M/C797S cells (Homo sapiens, UniProt P00533, T790M/C797S/L858R, cells depend on it). Nature of the series: Cell proliferation inhibition (Cell Titer-Glo), Ba/F3 EGFR L858R/T790M/C797S. The settings on record: 72 hours, CellTiter-Glo, read-out: Ba/F3 EGFR L858R_T790M_C797S IC50. The class given is cell-based, mouse.
Source text: as §1, §2, §3, §4
Background: In ATP-based viability assays light output follows the ATP content of the culture.

Series [3] addresses Ba/F3 EGFR Del19/C797S cells (Homo sapiens, UniProt P00533, C797S, cells depend on it, form not given). Nature of the series: Cell proliferation inhibition (Cell Titer-Glo), Ba/F3 EGFR Del19/C797S. The class given is cell-based, mouse. Particulars: 72 hours, CellTiter-Glo, read-out: Ba/F3 EGFR Del19/C797S IC50. Summed up:
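Ba/F3 lines carrying the EGFR mutants, grown in RPMI 1640 with 10% FBS, were seeded overnight then exposed to compound for 72 h at 37 °C, 5% CO2. Viability by CellTiter-Glo luminescence; IC50 from nonlinear regression of inhibition versus concentration.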

Series [4] can be described thus: Rat pharmacokinetic evaluation test. The series is classed as in vivo. The settings on record: Sprague-Dawley (SD), po, SD rats, male, p.o. 5 mg/kg, plasma. As to the method: SD rats were used as test animals to study the pharmacokinetic behavior of the compounds of the present invention in the rat body (plasma) after oral administration at a dose of 5 mg/kg.
2.2 Experimental Animals: 3 SD Rats/Group, Male, from Shanghai Jiesijie Experimental Animal Co., Ltd., Animal Production License Number (SCXK (Shanghai) 2013-0006 No. 311620400001794).
• Oral administration drug preparation: 20% solutol HS15 in 0.5% MC (methylcellulose)
20 g of a Solutol HS15 solid and 0.5 g of a MC solid powder were weighed and dissolved in 80 mL of purified water, and the mixture was vortexed, mixed until uniform, and subjected to ultrasound treatment to obtain a clear solution of 20% solutol HS15 in 0.5% MC.
The example compound was weighed into a 20 mL glass bottle, the solution was added thereto and the mixture was subjected to ultrasound treatment for 10 minutes to obtain a clear solution with a concentration of 0.5 mg/mL.
3 male SD rats were administered p.o. respectively after the 3 male SD rats were fasted overnight; the p.o. dose was 5 mg/kg and the administration volume was 10 mL/kg.
Blood collection: Before and after administration to rats, 0.2 mL of blood was collected from the jugular vein at 0.25, 0.5, 1, 2, 4, 6, 8 and 24 h, and placed in an EDTA-K2 anticoagulation tube, which was centrifuged at 6000 rpm at 4° C. for 6 min to separate plasma which was stored at −80° C.; the rats were fed 4 h after administration.
1) 160 μL of acetonitrile was added to 40 μL of plasma sample for precipitation, mixed and centrifuged at 3500×g for 5 to 20 min.
2) the treated supernatant solution was taken and subjected to LC/MS/MS to analyze the concentrations of the test compounds. LC/MS/MS analysis instrument: AB Sciex API 4000 Qtrap.
• Liquid phase conditions: Shimadzu LC-20AD pump • Chromatographic column: Agilent ZORBAX XDB-C18 (50×2.1 mm, 3.5 μm) mobile phase: liquid A is 0.1% aqueous formic acid solution, liquid B is acetonitrile • Flow rate: 0.4 mL/min • Elution time: 0-4.0 min, the eluent is as follows:
The main pharmacokinetic parameters were calculated using WinNonlin 6.1.

Chain of Ba/F3 EGFR Del19/T790M/C797S cells (P00533 with tags, fused parts or gaps DEL746-750/T790M/C797S, form open): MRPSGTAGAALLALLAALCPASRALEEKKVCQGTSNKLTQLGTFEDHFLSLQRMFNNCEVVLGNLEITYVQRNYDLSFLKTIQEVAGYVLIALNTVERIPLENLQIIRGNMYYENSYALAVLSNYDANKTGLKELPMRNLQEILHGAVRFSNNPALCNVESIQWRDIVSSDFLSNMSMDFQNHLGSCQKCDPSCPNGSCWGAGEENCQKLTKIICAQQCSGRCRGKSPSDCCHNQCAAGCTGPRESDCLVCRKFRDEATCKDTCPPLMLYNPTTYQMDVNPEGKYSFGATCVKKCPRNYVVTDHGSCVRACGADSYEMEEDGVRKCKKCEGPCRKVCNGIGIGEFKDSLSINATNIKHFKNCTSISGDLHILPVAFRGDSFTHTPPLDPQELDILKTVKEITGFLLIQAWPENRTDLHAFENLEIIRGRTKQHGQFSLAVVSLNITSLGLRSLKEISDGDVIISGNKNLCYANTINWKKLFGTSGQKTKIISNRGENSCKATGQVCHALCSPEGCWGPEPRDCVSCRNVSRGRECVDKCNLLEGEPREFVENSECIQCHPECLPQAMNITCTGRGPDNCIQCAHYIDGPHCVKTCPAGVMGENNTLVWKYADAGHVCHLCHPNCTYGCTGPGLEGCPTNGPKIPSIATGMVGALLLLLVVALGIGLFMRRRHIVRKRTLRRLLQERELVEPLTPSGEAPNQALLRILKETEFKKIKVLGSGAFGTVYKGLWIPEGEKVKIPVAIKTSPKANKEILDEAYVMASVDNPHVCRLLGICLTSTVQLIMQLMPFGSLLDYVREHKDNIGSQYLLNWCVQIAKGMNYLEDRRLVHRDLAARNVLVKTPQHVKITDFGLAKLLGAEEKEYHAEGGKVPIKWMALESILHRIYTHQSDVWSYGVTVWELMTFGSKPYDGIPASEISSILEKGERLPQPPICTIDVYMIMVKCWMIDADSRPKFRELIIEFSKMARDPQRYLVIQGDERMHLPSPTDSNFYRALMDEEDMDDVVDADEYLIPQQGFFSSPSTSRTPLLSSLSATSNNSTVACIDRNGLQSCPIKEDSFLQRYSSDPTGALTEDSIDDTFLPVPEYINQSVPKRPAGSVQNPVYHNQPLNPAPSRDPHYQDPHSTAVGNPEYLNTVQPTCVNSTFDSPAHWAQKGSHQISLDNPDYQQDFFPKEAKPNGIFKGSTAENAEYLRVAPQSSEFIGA
Chain of Ba/F3 EGFR L858R/T790M/C797S cells (P00533 whole entry T790M/C797S/L858R): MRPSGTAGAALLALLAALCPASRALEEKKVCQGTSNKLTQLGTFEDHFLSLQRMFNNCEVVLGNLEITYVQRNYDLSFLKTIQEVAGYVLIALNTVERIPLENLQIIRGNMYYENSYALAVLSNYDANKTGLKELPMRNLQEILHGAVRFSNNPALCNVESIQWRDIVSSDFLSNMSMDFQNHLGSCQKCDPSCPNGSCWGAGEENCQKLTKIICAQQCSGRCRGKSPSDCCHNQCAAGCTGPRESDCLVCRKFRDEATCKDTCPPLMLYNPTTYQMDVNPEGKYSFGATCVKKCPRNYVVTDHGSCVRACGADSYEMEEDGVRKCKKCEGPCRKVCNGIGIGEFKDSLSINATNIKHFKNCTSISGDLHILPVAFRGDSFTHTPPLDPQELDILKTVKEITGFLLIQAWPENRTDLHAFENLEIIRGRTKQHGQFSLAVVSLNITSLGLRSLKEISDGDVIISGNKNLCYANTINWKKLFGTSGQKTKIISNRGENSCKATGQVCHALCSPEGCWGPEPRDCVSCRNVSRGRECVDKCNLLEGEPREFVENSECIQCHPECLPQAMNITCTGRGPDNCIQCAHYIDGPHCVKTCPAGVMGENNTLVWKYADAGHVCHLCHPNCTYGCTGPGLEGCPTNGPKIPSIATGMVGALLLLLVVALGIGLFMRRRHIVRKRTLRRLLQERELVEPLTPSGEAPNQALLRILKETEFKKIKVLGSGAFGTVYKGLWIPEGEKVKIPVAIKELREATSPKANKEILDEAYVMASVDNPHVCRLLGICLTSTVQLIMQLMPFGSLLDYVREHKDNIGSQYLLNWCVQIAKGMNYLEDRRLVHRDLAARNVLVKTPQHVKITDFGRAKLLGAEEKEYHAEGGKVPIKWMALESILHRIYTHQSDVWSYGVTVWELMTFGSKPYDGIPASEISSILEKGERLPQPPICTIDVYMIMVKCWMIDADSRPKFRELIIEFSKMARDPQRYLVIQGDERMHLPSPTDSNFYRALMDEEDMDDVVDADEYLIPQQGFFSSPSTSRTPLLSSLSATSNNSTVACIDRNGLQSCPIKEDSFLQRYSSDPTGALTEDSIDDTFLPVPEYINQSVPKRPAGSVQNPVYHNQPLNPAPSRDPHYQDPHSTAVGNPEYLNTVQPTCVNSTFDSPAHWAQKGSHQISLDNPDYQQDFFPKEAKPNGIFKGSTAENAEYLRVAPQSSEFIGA
Chain of Ba/F3 EGFR Del19/C797S cells (P00533 with tags, fused parts or gaps DEL746-750/C797S, form open): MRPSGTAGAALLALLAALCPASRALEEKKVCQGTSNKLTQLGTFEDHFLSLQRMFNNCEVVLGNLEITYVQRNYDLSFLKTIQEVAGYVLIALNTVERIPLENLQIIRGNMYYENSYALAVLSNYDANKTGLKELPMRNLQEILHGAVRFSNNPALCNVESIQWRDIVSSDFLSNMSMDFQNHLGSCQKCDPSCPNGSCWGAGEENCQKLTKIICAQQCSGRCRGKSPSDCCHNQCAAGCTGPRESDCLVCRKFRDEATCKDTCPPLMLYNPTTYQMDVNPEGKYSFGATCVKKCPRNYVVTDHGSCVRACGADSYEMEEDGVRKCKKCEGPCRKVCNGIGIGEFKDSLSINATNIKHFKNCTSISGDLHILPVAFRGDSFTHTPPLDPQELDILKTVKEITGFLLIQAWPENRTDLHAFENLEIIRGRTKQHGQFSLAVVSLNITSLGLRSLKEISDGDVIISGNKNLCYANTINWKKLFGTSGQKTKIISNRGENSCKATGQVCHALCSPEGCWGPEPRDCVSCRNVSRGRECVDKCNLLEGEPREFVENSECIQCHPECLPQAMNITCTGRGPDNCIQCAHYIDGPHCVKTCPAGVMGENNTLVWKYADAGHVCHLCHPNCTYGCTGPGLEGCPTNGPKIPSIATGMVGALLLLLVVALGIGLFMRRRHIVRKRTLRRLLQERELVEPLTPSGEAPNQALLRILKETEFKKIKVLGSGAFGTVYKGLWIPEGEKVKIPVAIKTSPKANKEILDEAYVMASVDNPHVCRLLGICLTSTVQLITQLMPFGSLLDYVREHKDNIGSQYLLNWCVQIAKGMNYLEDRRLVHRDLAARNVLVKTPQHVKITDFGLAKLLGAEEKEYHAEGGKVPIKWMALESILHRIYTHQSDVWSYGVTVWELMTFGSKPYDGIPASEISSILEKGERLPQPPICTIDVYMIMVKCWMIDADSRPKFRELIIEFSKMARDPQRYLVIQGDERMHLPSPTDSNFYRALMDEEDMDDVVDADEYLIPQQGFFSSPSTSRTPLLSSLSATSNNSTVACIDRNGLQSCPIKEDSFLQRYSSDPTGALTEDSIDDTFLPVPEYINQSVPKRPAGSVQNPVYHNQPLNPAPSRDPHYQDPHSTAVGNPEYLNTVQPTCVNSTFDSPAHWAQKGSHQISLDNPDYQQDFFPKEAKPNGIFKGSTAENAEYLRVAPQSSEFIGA

In general, AUC(0-t) refers to the area under the concentration-time curve up to a stated or last time point. A higher AUC(0-t) goes with more exposure. By Cmax is commonly meant the highest concentration seen after dosing. The term half-life denotes the time needed for the level to fall by half in the phase considered. Read a high half-life as slow decline. For `CC(C)c1ccc(N2C[C@H](CS(C)(=O)=O)[C@H]2C)c2cnc(Nc3ccnc(-c4cn(C)nc4Cl)n3)cc12` [Example 5, N-(2-(3-chloro-1-methyl-1H-pyrazol-4-yl)pyrimidin-4-yl)-5-isopropyl-8-((2R,3S)-2-methyl-3-((methanesulfonyl)methyl)azabut-1-yl)isoquinolin-3-amine], the GI50 in series [1] stood at 3.7 nM. Also, the GI50 in series [2] is 11 nM. The GI50 in series [3] worked out at 5.1 nM. Further, in series [4], the AUC(0-t) was 1260 ng·h/mL, the peak level (Cmax) was 239 ng/mL and the half-life is 4.1 h.

With `CC(C)c1ccc(N2C[C@H](N(C)S(C)(=O)=O)[C@H]2C)c2cnc(Nc3ccnc(-c4cn(C)nc4Cl)n3)cc12` [Example 122, N-((2R,3S)-1-(3-((2-(3-chloro-1-methyl-1H-pyrazol-4-yl)pyrimidin-4-yl)amino)-5-isopropylisoquinolin-8-yl)-2-methylazetidin-3-yl)-N-methyl methanesulfonamide], the GI50 in series [1] is 2.9 nM. Also, the GI50 in series [2] came out at 8.2 nM. Further, the GI50 in series [3] was determined as 5.1 nM. In addition, in series [4], the AUC(0-t) came out at 1260 ng·h/mL, the peak level (Cmax) was 97 ng/mL and the half-life is 3.5 h.

In the case of `CC(C)c1ccc(N2C[C@H](NS(C)(=O)=O)[C@H]2C)c2cnc(Nc3ccnc(-c4cn(C)nc4Cl)n3)cc12` [Example 123, N-((2R,3S)-1-(3-((2-(3-chloro-1-methyl-1H-pyrazol-4-yl)pyrimidin-4-yl)amino)-5-isopropylisoquinolin-8-yl)-2-methylazetidin-3-yl)methanesulfonamide], the GI50 came to 3.3 nM in series [1], 13 nM in series [2] and 6.5 nM in series [3].

In the case of `Cc1nn(C)cc1-c1nccc(Nc2cc3c(C(C)C)ccc(N4C[C@H](N(C)S(C)(=O)=O)[C@H]4C)c3cn2)n1` [Example 126, N-((2R,3S)-1-(3-((2-(1,3-dimethyl-1H-pyrazol-4-yl)pyrimidin-4-yl)amino)-5-isopropylisoquinolin-8-yl)-2-methylazetidin-3-yl)-N-methyl methanesulfonamide], in series [1], the GI50 was determined as 2.1 nM. In addition, the GI50 in series [2] amounted to 7.5 nM. Besides, the GI50 in series [3] was 3 nM. Moreover, in series [4], the AUC(0-t) turned out to be 3140 ng·h/mL, the Cmax was 240 ng/mL and the half-life was 3.3 h.

Regarding `CC(C)c1cnc(N2C[C@H](CS(C)(=O)=O)[C@H]2C)c2cnc(Nc3ccnc(-c4cn(C)nc4Cl)n3)cc12` [Example 132, N-(2-(3-chloro-1-methyl-1H-pyrazol-4-yl)pyrimidin-4-yl)-5-isopropyl-8-((2R,3S)-2-methyl-3-((methanesulfonyl)methyl)azetidin-1-yl)-2,7-diazanaphthalen-3-amine], the GI50 in series [1] worked out at 5.6 nM. Moreover, the GI50 in series [2] was 15 nM. Moreover, in series [3], the GI50 amounted to 6.4 nM. Moreover, in series [4], the AUC(0-t) came to 1570 ng·h/mL, the Cmax is 180 ng/mL and the half-life was 3 h.

In the case of `CC(C)c1c(F)cc(N2C[C@H](NS(C)(=O)=O)[C@H]2C)c2cnc(Nc3ccnc(-c4cn(C)nc4Cl)n3)cc12` [Example 186, N-((2R,3S)-1-(3-((2-(3-chloro-1-methyl-1H-pyrazol-4-yl)pyrimidin-4-yl)amino)-6-fluoro-5-isopropylisoquinolin-8-yl)-2-methylazetidin-3-yl)methanesulfonamide], the GI50 in series [1] turned out to be 5.9 nM; in series [2] it was 8.8 nM; in series [3] it was 2.6 nM.
